The target of assay [1] is T1, AF-Est2 (Archaeoglobus fulgidus, UniProt O28735).
T1 construct: gene AF_1537; full-length, no stop codon, C-terminal 6xHis tag (pET24d, plasmid pWUR365), E. coli BL21-CodonPlus(DE3)-RIPL; tag kept
Put plainly: p-nitrophenol release at […] nm, microplate, Michaelis-Menten fit. In kind it is biochemical. The settings on record: 50 mM Tris-HCl pH 7.5, 30 °C; enzyme carries co-purified CoA.

For assay [2], the target named is T1, AF-Est2. Put plainly: X-ray crystal structure, […] Å. Particulars: co-purified from expression host, not added; full occupancy; groove near active site, pantetheine in alcohol pocket. Format: binding.
In assay [3] the target is T1, AF-Est2. Put plainly: phenol red pH-indicator assay at […] nm, Michaelis-Menten fit. In kind it is biochemical. Particulars: 1 mM HEPES pH 8.0; kcat is that at 70 °C (one KM printed for 70, 50 and 30 °C).

T1 sequence (O28735 entry or part of it): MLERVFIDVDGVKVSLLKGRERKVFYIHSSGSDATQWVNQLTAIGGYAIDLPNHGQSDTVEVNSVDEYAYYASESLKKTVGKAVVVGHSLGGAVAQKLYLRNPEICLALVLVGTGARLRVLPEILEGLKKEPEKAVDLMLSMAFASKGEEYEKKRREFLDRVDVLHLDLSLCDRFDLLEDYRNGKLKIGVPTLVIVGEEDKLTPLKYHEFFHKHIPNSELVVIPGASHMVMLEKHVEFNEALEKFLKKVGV

Consider `CC(=O)Oc1ccc([N+](=O)[O-])cc1` [C2, pNP-acetate], for which the Michaelis-Menten constant (Km) on AF-Est2 [1] came out at 620 ± 10 µM.

In the case of `CCC(=O)Oc1ccc([N+](=O)[O-])cc1` [C3, pNP-propionate], the Km on AF-Est2 [1] was found to be 254 ± 8 µM.

`CCCC(=O)Oc1ccc([N+](=O)[O-])cc1` [C4, pNP-butyrate]: on AF-Est2 [1], the Michaelis constant (Km) is 92 ± 3 µM.

With `CCCCC(=O)Oc1ccc([N+](=O)[O-])cc1` [C5, pNP-valerate], at AF-Est2 [1], the Km stood at 19 ± 1 µM.

For `CCCCCCCC(=O)Oc1ccc([N+](=O)[O-])cc1` [C8, pNP-caprylate], at AF-Est2 [1], the Km was found to be 120 ± 10 µM.

For the compound `CC(C)(COP(=O)(O)OP(=O)(O)OC[C@H]1O[C@@H](n2cnc3c(N)ncnc32)[C@H](O)[C@@H]1OP(=O)(O)O)[C@@H](O)C(=O)NCCC(=O)NCCS` [CoA], the “X-ray crystal structure, 1.4 Å” value at AF-Est2 [2] is listed as “confirmed the full occupancy of this CoA ligand in the AF-Est2 structure”.

`COC(=O)c1ccc(C)cc1` [methyl p-toluate]: the Km at AF-Est2 [3] was 1.5 ± 0.1 mM.

One may read the Km as the substrate concentration at which the rate is half of its maximum.

The record behind these values is article PMC4861933, “Structural and biochemical characterisation of Archaeoglobus fulgidus esterase reveals a bound CoA molecule in the vicinity of the active site” (Scientific Reports, 2016).
